What is called IC50 is the midpoint of a concentration-inhibition curve.

Molecules are shown by their SMILES.

The values below come from patent publication US12384788B2, “1,4-dihydrobenzo[d]pyrazolo[3,4-f][1,3]diazepine derivatives and related compounds as LRRK2, NUAK1 and/or TYK2 kinase modulators for the treatment of e.g. autoimmune disease” (Origenis GMBH, priority 2019, dated 2025).

For the test, the target named is T1, wt human TYK2, catalytic site (Homo sapiens, UniProt P29597).
T1 construct: wt human TYK2, catalytic site; purchased SignalChem
T1 sequence (P29597 897-1176 limits assumed): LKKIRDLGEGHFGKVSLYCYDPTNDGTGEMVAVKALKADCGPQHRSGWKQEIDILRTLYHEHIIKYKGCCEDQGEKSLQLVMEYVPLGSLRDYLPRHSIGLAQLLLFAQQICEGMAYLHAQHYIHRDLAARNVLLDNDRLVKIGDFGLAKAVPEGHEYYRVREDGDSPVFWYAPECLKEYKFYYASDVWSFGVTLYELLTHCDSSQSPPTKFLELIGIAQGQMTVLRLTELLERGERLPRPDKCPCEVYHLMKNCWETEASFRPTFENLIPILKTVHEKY
Description: HTRF KinEASE assay, TYK2. It counts as biochemical. Conditions: 1 μM ATP; read-out: IC50, inhibitory activity toward TYK2. The protocol:
Basic protocol for HTRF KinEASE assay (Cisbio/FRA) inhibitor studies involved two steps:
Enzymatic step: Addition of 4 μl of test compound in corresponding DMSO dilutions, 4 μl of kinase/substrate mixture, 2 μl of ATP into 384 well small volume plates. Incubation for at least 30 minutes at room temperature.
Detection step: Addition of 5 μl antibody and 5 μl streptavidin-XL665, read plate after 60 minutes. Data analysis of emission ratios according to KinEASE assay protocol.
Kinase and assay components were adjusted to final concentrations according to the kit protocol. For TYK2: 2 nM wt human TYK2, catalytic site (SignalChem/CAN), 1 μM HTRF KinEASE-TK Substrate-biotin, 1 μM ATP in 1× Kinase Buffer
On the technique in general: TR-FRET usually uses a lanthanide donor and a delayed reading to cut background.

On to `Fc1cccc(Cl)c1C1=Nc2cn[nH]c2-c2[nH]ncc2N1` [Compound 89, 5-(2-chloro-6-fluorophenyl)-4,9-dihydro-1H-dipyrazolo[4,3-d:3′,4′-f][1,3]diazepine], for which the IC50 lay within 0.01 to 0.1 µM.
